Measurements from PMC12778052 (Science Advances, 2026).

Experiments:
T24 cells [1] = test: In vitro binding of [^68Ga]AJ647 to T24 cells; type: cell-based; settings: T24 (low Nectin-4); 1 × 10^6 cells, ~1 μCi, 30 min, 4°C; means ± SD, n = 4
Description: (§1) In vitro binding of [^68Ga]AJ647 to T24, SCaBER, RT112, UC9, UC14, and HT1376 cells was determined by incubating 1 × 10^6 cells with ~1 μCi of [^68Ga]AJ647 for 30 min at 4°C. After incubation, cells were washed three times with ice-cold PBS containing 0.1% Tween 20 and counted on an automated gamma counter. All cell radioactivity uptake studies were performed in quadruplicate for each cell line and repeated three times.

human Nectin-4 = target: T1, human Nectin-4 (Homo sapiens, UniProt Q96NY8); test: SPR affinity for recombinant human Nectin-4; type: binding; settings: human Nectin-4
T1 construct: purchased R&D Systems 2659-N4-050
T1 sequence (Q96NY8 32-349 limits assumed): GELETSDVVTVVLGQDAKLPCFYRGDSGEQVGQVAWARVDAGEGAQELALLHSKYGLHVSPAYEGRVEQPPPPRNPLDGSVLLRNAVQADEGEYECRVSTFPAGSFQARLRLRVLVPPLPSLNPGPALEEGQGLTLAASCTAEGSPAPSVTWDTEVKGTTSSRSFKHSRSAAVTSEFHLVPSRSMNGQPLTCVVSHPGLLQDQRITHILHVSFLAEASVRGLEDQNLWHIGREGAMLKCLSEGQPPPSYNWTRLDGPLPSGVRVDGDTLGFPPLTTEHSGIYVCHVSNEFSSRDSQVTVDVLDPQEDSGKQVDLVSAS
Description: The affinity of AJ647 for human and mouse Nectin-4 recombinant proteins was evaluated by SPR. The experiments were conducted using a Biacore T200 instrument with a CM5 chip at 25°C. The ligands used were His-tagged human Nectin-4 (R&D Systems, catalog no. 2659-N4-050, 44 kDa, 0.2 mg/ml stock concentration) and mouse Nectin-4 proteins (R&D Systems, catalog no. 3116-N4-050, 45 kDa, 0.2 mg/ml stock concentration), which were immobilized onto the CM5 chip. AJ647 (3057.5 Da, 10 mM stock concentration) was used as the analyte, which flowed over the ligand-immobilized surface. FC2 and FC4 was used as the experimental flow cell, while FC1 and FC3 served as the reference. An anti-His antibody (1 mg/ml stock concentration) was immobilized on all flow cells using standard amine coupling chemistry. […] Human Nectin-4 was captured onto FC2 at a level of ~600 RU, with a 1:20 dilution and 10 μg/ml diluted concentration in PBS-P. Mouse Nectin-4 was captured onto FC4 at a level of 600 RU, with a 1:20 dilution and 10 μg/ml diluted concentration in PBS-P. The theoretical maximum response (Rmax ) values were calculated on the basis of the captured response values (table S1), assuming a 1:1 interaction mechanism. […] All association and dissociation kinetics were evaluated by 1:1 kinetics model fitting.

UC14 cells = test: In vitro binding of [^68Ga]AJ647 to UC14 cells; type: cell-based; settings: 1 × 10^6 cells, ~1 μCi, 30 min, 4°C, means ± SD, n = 4
Description: as §1

HT1376 cells = test: In vitro binding of [^68Ga]AJ647 to HT1376 cells; type: cell-based; settings: 1 × 10^6 cells, ~1 μCi, 30 min, 4°C, means ± SD, n = 4
Description: as §1

HT1376 tumors = test: Pilot in vivo EV effect on tumor uptake of [^68Ga]AJ647, HT1376 tumors; design: species or system NSG mice; settings: EV 20 mg/kg i.v. single dose, 24 hours before tracer, ex vivo 60 min, n = 5
Description: Male NSG mice were implanted subcutaneously with HT1376 and SCaBER cells (4 million each) on the right and left rostral ends, respectively. On day 25 after cell inoculation (average tumor volume, 200 ± 35 mm^3), mice were randomized and treated with a single dose of either saline or EV ADC (20 mg/kg) injected intravenously (volume not exceeding 300 μl) or with 200 μl of saline (n = 7 per group). Twenty-four hours following the EV dose, [^68Ga]AJ647 PET scans (n = 2 per group) were acquired, and ex vivo biodistribution (n = 5 per group) was performed using the protocols mentioned above.

T24 cells [2] = test: [^68Ga]AJ647 binding after EV preincubation, T24 cells; type: cell-based; settings: T24 (Nectin-4-negative); EV 60 nM preincubated 30 min
Description: An FITC analog of EV was made using the manufacturer’s recommended protocol (Thermo Fisher Scientific, no. 46409). Briefly, 1 mg of EV was incubated with FITC-NHS ester at a 5:1 molar ratio overnight at 4°C at 0.1 M borate buffer (pH 8.0). Excess unbound FITC-NHS ester was washed off by performing buffer exchange with 1× PBS using three rounds of ultracentrifugation at 4000g for 10 min (3-kDa molecular weight cutoff filter, Amicon, no. UFC900308). The effect of nonradioactive AJ647 on EV binding to Nectin-4 was assessed by incubating HT1376 cells at varying concentrations (5.4 μM to 0.01 nM using a serial dilution) of AJ647 for 30 min at 4°C. Unbound AJ647 was washed off using 3 ml of cold PBS. Cells were incubated with EV-FITC for 30 min at 4°C. Excess EV-FITC was washed off using 3 ml of cold PBS. The mean fluorescence intensity was measured using a flow cytometer, and data are reported as the percentage of 0 nM AJ647. For the effect of EV on [^68Ga]AJ647 binding, EV was used at concentrations of 90 to 0.04 nM using serial dilutions for 30 min at 4°C. Unbound EV was washed off using cold PBS. Then, cells were incubated with 1 μCi of [^68Ga]AJ647 for an additional 30 min. Excess [^68Ga]AJ647 was washed off three times with cold PBS. Samples were read in an automated gamma counter, and data are reported as the percentage of 1-μCi standard counts.

Molecule	[^68Ga]AJ647 uptake (T24 cells [1])	koff (human Nectin-4)	[^68Ga]AJ647 uptake (UC14 cells)	[^68Ga]AJ647 uptake (HT1376 cells)	reduction in [^68Ga]AJ647 tumor uptake vs saline controls (HT1376 tumors)	effect on [^68Ga]AJ647 binding (T24 cells [2])
CSCC[C@@H]1NC(=O)[C@@H]2CSCCC(=O)N3CN(CN(C3)C(=O)CCSC[C@H](NC(=O)CCOCCOCCOCCOCCOCCOCCOCCOCCOCCOCCOCCOCCNC(=O)CN3CCN(CC(=O)O)CCN(CC(=O)O)CC3)C(=O)N3CCC[C@H]3C(=O)N[C@@H](Cc3cccc4ccccc34)C(=O)N[C@@H](CC(=O)O)C(=O)N2)C(=O)CCSC[C@@H](C(N)=O)NC(=O)[C@H](Cc2c[nH]c3ccccc23)NC(=O)[C@@H]2C[C@@H](O)CN2C(=O)[C@@H]2CCCN2C(=O)[C@H]([C@@H](C)O)NC(=O)[C@H](CO)NC(=O)[C@H](Cc2c[nH]c3ccccc23)NC(=O)[C@@H](CC(=O)O)NC(=O)[C@H](CCCCNC(=N)N)NC1=O [[^68Ga]AJ647, metal not drawn]	0.2 ± 0.11 %IA	0.0106 ± 0.00159 s⁻¹	3.0 ± 0.42 %IA	6.5 ± 0.52 %IA		
enfortumab vedotin [EV]					84%	but not in Nectin-4–negative T24 cells
